Data reported in ChEMBL document CHEMBL5241136, “Design, synthesis and evaluation of heterocyclic 2-phenylacetate derivatives as water-soluble rapid recovery hypnotics” (Bioorg Med Chem Lett, 2023).

Key:
[1] = n-Octanol/water partition coefficient, logP of the compound; type: physicochemical
Mus musculus [2] = experiment: Anesthetic activity in mouse assessed as concentration required to induce hypnotic effect; type: functional
[3] = Therapeutic index, ratio of LD50 for toxicity in mouse to HD50 for anesthetic activity in mouse assessed as concentration required to induce hypnotic effect; conditions: read-out: TI
[4] = Toxicity in mouse assessed as lethal dose; conditions: in vivo
[5] = target: GABA-A receptor; anion channel (Homo sapiens) (UniProt P14867+P47870+P18507+P28472+P48169+Q99928+Q9UN88+P34903+O00591+O14764+Q8N1C3+P18505+P78334+P47869+P31644+Q16445); experiment: Inhibition of GABAA receptor (unknown origin) at 50 uM by radioligand receptor binding assay relative to control; type: protein-complex assay
Oryctolagus cuniculus [6] = experiment: Anesthetic activity in rabbit assessed as time duration of loss of righting reflex; type: functional
Rattus norvegicus [7] = experiment: Anesthetic activity in rat assessed as time to behavioral recovery; type: functional
Oryctolagus cuniculus [8] = experiment: Anesthetic activity in rabbit assessed as concentration required to induce hypnotic effect; type: functional
Mus musculus [9] = experiment: Anesthetic activity in mouse assessed as time duration of loss of righting reflex; type: functional
Mus musculus [10] = experiment: Anesthetic activity in mouse assessed as time to walk; type: functional
[11] = Toxicity in rabbit assessed as lethal dose; set-up: species or system Oryctolagus cuniculus; conditions: in vivo
Rattus norvegicus [12] = experiment: Anesthetic activity in rat assessed as onset time; type: functional
Mus musculus [13] = experiment: Anesthetic activity in mouse assessed as time to behavioral recovery; type: functional
Oryctolagus cuniculus [14] = experiment: Anesthetic activity in rabbit assessed as onset time; type: functional
Rattus norvegicus [15] = experiment: Anesthetic activity in rat assessed as time to walk; type: functional
Mus musculus [16] = experiment: Anesthetic activity in mouse assessed as onset time; type: functional
Oryctolagus cuniculus [17] = experiment: Anesthetic activity in rabbit assessed as time to walk; type: functional
[18] = Therapeutic index, ratio of LD50 for toxicity in rabbit to HD50 for anesthetic activity in rabbit assessed as concentration required to induce hypnotic effect; conditions: read-out: TI
Rattus norvegicus [19] = experiment: Anesthetic activity in rat assessed as concentration required to induce hypnotic effect; type: functional
[20] = Toxicity in rat assessed as lethal dose; conditions: in vivo
[21] = Therapeutic index, ratio of LD50 for toxicity in rat to HD50 for anesthetic activity in rat assessed as concentration required to induce hypnotic effect; conditions: read-out: TI
Rattus norvegicus [22] = experiment: Anesthetic activity in rat assessed as time duration of loss of righting reflex; type: functional
[23] = n-octanol/water, read-out: logP

SMILES	logP [1, 23]	ED50 (Mus musculus [2])	selectivity ratio [3]	LD50 [4]	inhibition [5]	further results
CCOC(=O)Cc1cc(OCC)c(OCC(=O)N(CC)CC)cc1F						logP ([1]; octanol/water): 2.1
CCOc1cc(CC(=O)OCC(F)(F)F)ccc1OCC(=O)N(CC)CC	2.6					
CCOc1cc(CC(=O)OC(C)C)ccc1OCC(=O)N1CCN(C(=O)OC(C)(C)C)CC1	2.1	36.8 mg/kg	7	258 mg/kg	29.3%	
CCCOC(=O)Cc1ccc(OCC(=O)N2CCOCC2)c(OC)c1	1.5	52.9 mg/kg	6.4	339 mg/kg	46.3%	
CC(C)c1cccc(C(C)C)c1O [PROPOFOL]	4.2	11.9 mg/kg	5.1			Time (Oryctolagus cuniculus [6]): 326.6 s; Time (Rattus norvegicus [7]): 335.8 s; ED50 (Oryctolagus cuniculus [8]): 3.7 mg/kg; Time (Mus musculus [9]): 240.9 s; Time (Mus musculus [10]): 46.5 s; LD50 [11]: 20.2 mg/kg; Time (Rattus norvegicus [12]): 10.1 s; Time (Mus musculus [13]): 242.7 s; Time (Oryctolagus cuniculus [14]): 21.7 s; Time (Rattus norvegicus [15]): 286.5 s; Time (Mus musculus [16]): 8.1 s; Time (Oryctolagus cuniculus [17]): 425.3 s; selectivity ratio [18]: 5.4
CCOC(=O)Cc1ccc(OCC(=O)N2CCN(C(=O)OC(C)(C)C)CC2)c(OCC)c1	1.8	30.6 mg/kg	7.1	217 mg/kg	45.2%	
COc1cc(CC(=O)OC(C)C)ccc1OCC(=O)N1CCOCC1	1.3	46.8 mg/kg	5.9	276 mg/kg	35.7%	
CCOC(=O)Cc1ccc(OCC(=O)N2CCNCC2)c(OC)c1	1.5	> 100 mg/kg			44.5%	
COc1cc(CC(=O)OC(C)C)ccc1OCC(=O)N1CCCC1	1.9	59.9 mg/kg			55.6%	
CCCOC(=O)Cc1ccc(OCC(=O)N2CCNCC2)c(OCC)c1	1.7	> 100 mg/kg			23.1%	
CCCOC(=O)Cc1ccc(OCC(=O)N2CCCC2)c(OCC)c1	2.3	60.8 mg/kg			47.8%	
CCCOC(=O)Cc1ccc(OCC(=O)N(CC)CC)c(OC)c1 [PROPANIDID]		20.9 mg/kg				Time (Oryctolagus cuniculus [6]): 265.4 s; Time (Rattus norvegicus [7]): 79.9 s; ED50 (Oryctolagus cuniculus [8]): 5.1 mg/kg; Time (Mus musculus [9]): 89.6 s; Time (Mus musculus [10]): 56.3 s; Time (Rattus norvegicus [12]): 16.3 s; Time (Mus musculus [13]): 83.9 s; Time (Oryctolagus cuniculus [14]): 22.6 s; Time (Rattus norvegicus [15]): 58.7 s; Time (Mus musculus [16]): 6.7 s; Time (Oryctolagus cuniculus [17]): 124.5 s
COc1cc(CC(=O)OC(C)C)ccc1OCC(=O)N1CCNCC1	1.8	> 100 mg/kg			57.8%	
CCCOC(=O)Cc1ccc(OCC(=O)N2CCOCC2)c(OCC)c1	1.4	32.2 mg/kg	6.2	200 mg/kg	64.3%	Time (Oryctolagus cuniculus [6]): 211.4 s; Time (Rattus norvegicus [7]): 69.6 s; ED50 (Rattus norvegicus [19]): 12.2 mg/kg; ED50 (Oryctolagus cuniculus [8]): 6.5 mg/kg; LD50 [20]: 123 mg/kg; Time (Mus musculus [9]): 104.8 s; selectivity ratio [21]: 10.1; Time (Mus musculus [10]): 46.8 s; LD50 [11]: 108 mg/kg; Time (Rattus norvegicus [12]): 9.2 s; Time (Mus musculus [13]): 89.6 s; Time (Oryctolagus cuniculus [14]): 21.3 s; Time (Rattus norvegicus [15]): 37.9 s; Time (Mus musculus [16]): 6.7 s; Time (Rattus norvegicus [22]): 81.2 s; Time (Oryctolagus cuniculus [17]): 79.6 s; selectivity ratio [18]: 16.6
CCOC(=O)Cc1ccc(OCC(=O)N2CCNCC2)c(OCC)c1	2	> 100 mg/kg			65.2%	
CCOC(=O)Cc1ccc(OCC(=O)N2CCN(C(=O)OC(C)(C)C)CC2)c(OC)c1	1.5	35.2 mg/kg	7.3	257 mg/kg	55.2%	
CCOC(=O)Cc1ccc(OCC(=O)N2CCOCC2)c(OC)c1	1.4	44.8 mg/kg	6.2	278 mg/kg	52.9%	
CCOC(=O)Cc1ccc(OCC(=O)N2CCCC2)c(OCC)c1	2.1	56 mg/kg			26.5%	
CCOC(=O)Cc1ccc(OCC(=O)N2CCOCC2)c(OCC)c1	1.1	35.5 mg/kg	6.4	227 mg/kg	62.8%	Time (Oryctolagus cuniculus [6]): 197.2 s; Time (Rattus norvegicus [7]): 65.8 s; ED50 (Rattus norvegicus [19]): 10.5 mg/kg; ED50 (Oryctolagus cuniculus [8]): 7.6 mg/kg; LD50 [20]: 89.3 mg/kg; Time (Mus musculus [9]): 112.9 s; selectivity ratio [21]: 8.5; Time (Mus musculus [10]): 39.8 s; LD50 [11]: 131 mg/kg; Time (Rattus norvegicus [12]): 8.7 s; Time (Mus musculus [13]): 69.3 s; Time (Oryctolagus cuniculus [14]): 24.6 s; Time (Rattus norvegicus [15]): 25.8 s; Time (Mus musculus [16]): 7.6 s; Time (Rattus norvegicus [22]): 78.9 s; Time (Oryctolagus cuniculus [17]): 96.6 s; selectivity ratio [18]: 17.3
CCCOC(=O)Cc1ccc(OCC(=O)N2CCN(C(=O)OC(C)(C)C)CC2)c(OCC)c1	2.3	32.9 mg/kg	7.3	240 mg/kg	33.4%	
CCOC(=O)Cc1ccc(OCC(=O)N2CCCC2)c(OC)c1	1.3	56.8 mg/kg			48.8%	
CCCOC(=O)Cc1ccc(OCC(=O)N(CC)CC)c(OCC)c1 [AZD-3043]	2.8	17.6 mg/kg				Time (Oryctolagus cuniculus [6]): 221.6 s; Time (Rattus norvegicus [7]): 56.9 s; ED50 (Oryctolagus cuniculus [8]): 4.6 mg/kg; Time (Mus musculus [9]): 63.8 s; Time (Mus musculus [10]): 22.9 s; Time (Rattus norvegicus [12]): 12.4 s; Time (Mus musculus [13]): 89.6 s; Time (Oryctolagus cuniculus [14]): 19.8 s; Time (Rattus norvegicus [15]): 38.4 s; Time (Mus musculus [16]): 5.6 s; Time (Oryctolagus cuniculus [17]): 89.6 s
CCOc1cc(CC(=O)OC(C)C)ccc1OCC(=O)N1CCNCC1	1.5	> 100 mg/kg			36.4%	
CCOc1cc(CC(=O)OC(C)C)ccc1OCC(=O)N1CCOCC1	1.2	30.8 mg/kg	6.5	200 mg/kg	76.8%	Time (Oryctolagus cuniculus [6]): 188.6 s; Time (Rattus norvegicus [7]): 61.7 s; ED50 (Rattus norvegicus [19]): 11.4 mg/kg; ED50 (Oryctolagus cuniculus [8]): 7.4 mg/kg; LD50 [20]: 128 mg/kg; Time (Mus musculus [9]): 116.8 s; selectivity ratio [21]: 11.2; Time (Mus musculus [10]): 54.9 s; LD50 [11]: 112 mg/kg; Time (Rattus norvegicus [12]): 11.1 s; Time (Mus musculus [13]): 96.8 s; Time (Oryctolagus cuniculus [14]): 19.9 s; Time (Rattus norvegicus [15]): 32.6 s; Time (Mus musculus [16]): 7.5 s; Time (Rattus norvegicus [22]): 84.6 s; Time (Oryctolagus cuniculus [17]): 81.4 s; selectivity ratio [18]: 15.2
CCCOC(=O)Cc1ccc(OCC(=O)N2CCNCC2)c(OC)c1	1.7	> 100 mg/kg			38.6%	
CCCOC(=O)Cc1ccc(OCC(=O)N2CCN(C(=O)OC(C)(C)C)CC2)c(OC)c1	1.9	43.6 mg/kg	7.8	340 mg/kg	36.1%	
CCCOC(=O)Cc1ccc(OCC(=O)N2CCCC2)c(OC)c1	1.8	64.2 mg/kg			72.5%	
COc1cc(CC(=O)OC(C)C)ccc1OCC(=O)N1CCN(C(=O)OC(C)(C)C)CC1	1.8	38.2 mg/kg	6.9	264 mg/kg	69.7%	
